# Measurements from patent US20040063662A1, “Selenophene anti-tumor agents” (priority 1996, published 2004).
# Tests used:
# [1] = system: CCRF-CEM; test: NCI human tumor cell panel: CCRF-CEM (Leukemia); format: cell-based
# [2] = system: LOX IMVI; test: NCI human tumor cell panel: LOX IMVI (Melanoma); format: cell-based
# [3] = system: SN12C; test: NCI human tumor cell panel: SN12C (Renal Cancer); format: cell-based
# [4] = system: PC-3; test: NCI human tumor cell panel: PC-3 (Prostate Cancer); format: cell-based
# [5] = system: 786-0; test: NCI human tumor cell panel: 786-0 (Renal Cancer); format: cell-based; conditions: 786-0, read-out: Log10 TGI (converted)
# [6] = system: NCI-H522; test: NCI human tumor cell panel: NCI-H522 (Non-Small Cell Lung Cancer)
# [7] = system: OVCAR-8; test: NCI human tumor cell panel: OVCAR-8 (Ovarian Cancer); format: cell-based
# [8] = system: OVCAR-3; test: NCI human tumor cell panel: OVCAR-3 (Ovarian Cancer); format: cell-based
# [9] = system: RPMI-8226; test: NCI human tumor cell panel: RPMI-8226 (Leukemia); format: cell-based
# [10] = system: UACC-62; test: NCI human tumor cell panel: UACC-62 (Melanoma); format: cell-based
# [11] = system: MOLT-4; test: NCI human tumor cell panel: MOLT-4 (Leukemia); format: cell-based
# [12] = system: SW-620; test: NCI human tumor cell panel: SW-620 (Colon Cancer); format: cell-based
# [13] = system: ACHN; test: NCI human tumor cell panel: ACHN (Renal Cancer); format: cell-based
# [14] = system: UO-31; test: NCI human tumor cell panel: UO-31 (Renal Cancer); format: cell-based
# [15] = system: HS 578T; test: NCI human tumor cell panel: HS 578T (Breast Cancer); format: cell-based
# [16] = system: SF-295; test: NCI human tumor cell panel: SF-295 (CNS Cancer); format: cell-based; conditions: SF-295, read-out: Log10 GI50 (converted)
# [17] = system: HOP-92; test: NCI human tumor cell panel: HOP-92 (Non-Small Cell Lung Cancer)
# [18] = system: NCI-H23; test: NCI human tumor cell panel: NCI-H23 (Non-Small Cell Lung Cancer); format: cell-based; conditions: NCI-H23, read-out: Log10 GI50 (converted)
# [19] = system: U251; test: NCI human tumor cell panel: U251 (CNS Cancer); format: cell-based
# [20] = system: DU-145; test: NCI human tumor cell panel: DU-145 (Prostate Cancer); format: cell-based
# [21] = system: BT-549; test: NCI human tumor cell panel: BT-549 (Breast Cancer); format: cell-based
# [22] = system: HCT-15; test: NCI human tumor cell panel: HCT-15 (Colon Cancer); format: cell-based
# [23] = system: SNB-19; test: NCI human tumor cell panel: SNB-19 (CNS Cancer); format: cell-based; conditions: SNB-19, read-out: Log10 GI50 (converted)
# [24] = system: OVCAR-4; test: NCI human tumor cell panel: OVCAR-4 (Ovarian Cancer); format: cell-based; conditions: OVCAR-4, read-out: Log10 GI50 (converted)
# [25] = system: HOP-62; test: NCI human tumor cell panel: HOP-62 (Non-Small Cell Lung Cancer); format: cell-based
# [26] = system: HT29; test: NCI human tumor cell panel: HT29 (Colon Cancer); format: cell-based
# [27] = system: A549/ATCC; test: NCI human tumor cell panel: A549/ATCC (Non-Small Cell Lung Cancer); format: cell-based; conditions: read-out: Log10 TGI (converted)
# [28] = system: EKVX; test: NCI human tumor cell panel: EKVX (Non-Small Cell Lung Cancer); format: cell-based
# [29] = system: HCT-116; test: NCI human tumor cell panel: HCT-116 (Colon Cancer); format: cell-based
# [30] = system: MALME-3M; test: NCI human tumor cell panel: MALME-3M (Melanoma); format: cell-based; conditions: Malme-3M
# [31] = system: SF-539; test: NCI human tumor cell panel: SF-539 (CNS Cancer); format: cell-based
# [32] = system: MDA-N; test: NCI human tumor cell panel: MDA-N (Breast Cancer); format: cell-based
# [33] = read-out: Log10 GI50 (converted)
# [34] = read-out: Log10 TGI (converted)
smiles,measurement,setting,value
O=Cc1ccc(-c2ccc(-c3ccc(C=O)[se]3)s2)s1 [compound 688829],GI50,[1]; [33],7.94 µM
same,IC (TGI),[1]; [34],> 100 µM
same,GI50,[2]; [33],16.6 µM
same,IC (TGI),[2]; [34],> 100 µM
same,GI50,[3]; [33],28.2 µM
same,IC (TGI),[3]; [34],85.1 µM
same,GI50,"[4]; PC-3, read-out: Log10 GI50 (converted)",28.2 µM
same,IC (TGI),"[4]; PC-3, read-out: Log10 TGI (converted)",> 100 µM
same,IC (TGI),[5],26.9 µM
same,GI50,"[6]; NCI-H522, read-out: Log10 GI50 (converted)",11.2 µM
same,IC (TGI),"[6]; NCI-H522, read-out: Log10 TGI",39.8 µM
same,GI50,"[7]; OVCAR-8, read-out: Log10 GI50 (converted)",15.1 µM
same,IC (TGI),"[7]; OVCAR-8, read-out: Log10 TGI (converted)",93.3 µM
same,GI50,"[8]; OVCAR-3, read-out: Log10 GI50 (converted)",0.129 µM
same,IC (TGI),"[8]; OVCAR-3, read-out: Log10 TGI (converted)",0.631 µM
same,GI50,"[9]; RPMI-8226, read-out: Log10 GI50 (converted)",38.9 µM
same,IC (TGI),"[9]; RPMI-8226, read-out: Log10 TGI",> 100 µM
same,GI50,"[10]; UACC-62, read-out: Log10 GI50 (converted)",0.141 µM
same,IC (TGI),"[10]; UACC-62, read-out: Log10 TGI (converted)",> 100 µM
same,GI50,"[11]; MOLT-4, read-out: Log10 GI50 (converted)",57.5 µM
same,IC (TGI),"[11]; MOLT-4, read-out: Log10 TGI (converted)",> 100 µM
same,GI50,"[12]; SW-620, read-out: Log10 GI50 (converted)",0.832 µM
same,IC (TGI),"[12]; SW-620, read-out: Log10 TGI (converted)",> 100 µM
same,GI50,[13]; [33],> 100 µM
same,IC (TGI),[13]; [34],> 100 µM
same,GI50,"[14]; UO-31, read-out: Log10 GI50 (converted)",> 100 µM
same,IC (TGI),"[14]; UO-31, read-out: Log10 TGI (converted)",> 100 µM
same,GI50,[15]; [33],2.88 µM
same,IC (TGI),[15]; [34],> 100 µM
same,GI50,[16],> 100 µM
same,GI50,"[17]; HOP-92, read-out: Log10 GI50 (converted)",97.7 µM
same,IC (TGI),"[17]; HOP-92, read-out: Log10 TGI",> 100 µM
same,GI50,[18],> 100 µM
same,GI50,"[19]; U-251, U251, read-out: Log10 GI50 (converted)",0.245 µM
same,IC (TGI),"[19]; U-251, U251, read-out: Log10 TGI (converted)",25.7 µM
same,GI50,"[20]; DU-145, read-out: Log10 GI50 (converted)",> 100 µM
same,IC (TGI),"[20]; DU-145, read-out: Log10 TGI (converted)",> 100 µM
same,GI50,"[21]; BT-549, read-out: Log10 GI50 (converted)",56.2 µM
same,IC (TGI),"[21]; BT-549, read-out: Log10 TGI (converted)",> 100 µM
same,GI50,"[22]; HCT-15, read-out: Log10 GI50 (converted)",22.9 µM
same,IC (TGI),"[22]; HCT-15, read-out: Log10 TGI (converted)",> 100 µM
same,GI50,[23],> 100 µM
same,GI50,[24],0.186 µM
same,GI50,"[25]; HOP-62, read-out: Log10 GI50 (converted)",0.251 µM
same,IC (TGI),"[25]; HOP-62, read-out: Log10 TGI (converted)",15.8 µM
same,GI50,"[26]; HT-29, HT29, read-out: Log10 GI50 (converted)",23.4 µM
same,IC (TGI),"[26]; HT-29, HT29, read-out: Log10 TGI (converted)",> 100 µM
same,IC (TGI),[27],> 100 µM
same,GI50,[28]; [33],> 100 µM
same,IC (TGI),[28]; [34],> 100 µM
same,GI50,"[29]; HCT-116, read-out: Log10 GI50 (converted)",0.295 µM
same,IC (TGI),"[29]; HCT-116, read-out: Log10 TGI (converted)",> 100 µM
same,GI50,[30]; [33],28.8 µM
same,IC (TGI),[30]; [34],> 100 µM
same,GI50,"[31]; SF-539, read-out: Log10 GI50 (converted)",27.5 µM
same,IC (TGI),"[31]; SF-539, read-out: Log10 TGI (converted)",> 100 µM
same,GI50,[32]; [33],20.9 µM
same,IC (TGI),[32]; [34],> 100 µM
